Key:
[1] = tested on: barnyardgrass (Echinochloa crus-galli L.); experiment: Test Example 1: foliar treatment, growth inhibition rate, barnyardgrass; format: in vivo; conditions: 31 g/ha active ingredient, visually observed 17th to 23rd day after application
Procedure, shortened: (§1)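 Plants grown in upland soil in pots were sprayed on the foliage at set leaf stages (corn 2.0–3.5, greenfoxtail 1.0–3.0, rice 1.0–2.5, wheat 1.7–3.4 leaves) with wettable powder or emulsifiable concentrate formulations diluted in water at 500 L/ha plus 0.1 vol % spreader. Growth inhibition was scored visually 17–23 days later.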

[2] = tested on: redroot pigweed (Amaranthus retroflexus L.); experiment: Test Example 1: foliar treatment, growth inhibition rate, redroot pigweed; format: in vivo; conditions: 31 g/ha active ingredient, visually observed 17th to 23rd day after application
Procedure, shortened: (§2)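 Visual scoring of growth inhibition, 0% (untreated) to 100% (complete kill), on days 17–23 following post-emergence spray of formulated compound in water (500 L/ha, 0.1 vol % spreader); plants treated at set leaf stages, e.g. corn 2.0–3.5, wheat 1.7–3.4.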

wheat (Triticum spp.) = experiment: Test Example 1: foliar treatment, growth inhibition rate, wheat; format: in vivo; conditions: 31 g/ha active ingredient, visually observed 17th to 23rd day after application
Procedure, shortened: (§3)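 Seeds were sown in upland field soil in pots. At the target leaf stage (corn 2.0–3.5; greenfoxtail 1.0–3.0; rice 1.0–2.5; wheat 1.7–3.4), the formulated compound, diluted at a water volume of 500 L/ha with 0.1 vol % spreader, was applied by small sprayer. Plants were rated by eye on days 17–23.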

crabgrass = experiment: Test Example 2: soil application on the day after sowing, growth inhibition rate, crabgrass; format: in vivo, Digitaria sanguinalis L.; conditions: 250 g/ha active ingredient, observed on 19th to 24th day
Procedure, shortened: (§4)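 Pre-emergence soil treatment: one day post-sowing in upland soil, compound formulations at set active-ingredient rates were applied in 500 L/ha water. Visual rating of growth inhibition (0% untreated-equivalent to 100% complete kill) followed on days 19–24 after application.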

rice = experiment: Test Example 2: soil application on the day after sowing, growth inhibition rate, rice; format: in vivo, Oryza sativa L.; conditions: 250 g/ha active ingredient, observed on 19th to 24th day
Description: (§5) Upland field soil was put into a 1/170,000 hectare pot, and seeds of various plants (barnyardgrass, crabgrass, greenfoxtail, redroot pigweed, prickly sida, velvetleaf, rice, wheat, corn and soybean) were sown. On the day after sowing, wettable powders or emulsifiable concentrates of the compounds of the present invention prepared in accordance with a conventional preparation method, were weighed so that the active ingredients became the prescribed amounts, and diluted with water in an amount corresponding to 500 liter per 1 hectare, followed by soil application with a small sprayer. On the 19th to 24th day after the application, the state of growth of the respective plants was visually observed, and the herbicidal effect was evaluated in accordance with a growth inhibition rate (%) of from 0 (equivalent to the non-treated area) to 100% (complete kill).

greenfoxtail = experiment: Test Example 2: soil application on the day after sowing, growth inhibition rate, greenfoxtail; format: in vivo, Setaria viridis L.; conditions: 250 g/ha active ingredient, observed on 19th to 24th day
Description: as §5

corn (Zea mays L.) = experiment: Test Example 1: foliar treatment, growth inhibition rate, corn; format: in vivo; conditions: 31 g/ha active ingredient, visually observed 17th to 23rd day after application
Procedure, shortened: as §3

barnyardgrass = experiment: Test Example 2: soil application on the day after sowing, growth inhibition rate, barnyardgrass; format: in vivo, Echinochloa crus-galli L.; conditions: 250 g/ha active ingredient, observed on 19th to 24th day
Description: as §5

prickly sida = experiment: Test Example 2: soil application on the day after sowing, growth inhibition rate, prickly sida; format: in vivo, Sida spinosa L.; conditions: 250 g/ha active ingredient, observed on 19th to 24th day
Description: as §5

wheat = experiment: Test Example 2: soil application on the day after sowing, growth inhibition rate, wheat; format: in vivo, Triticum spp.; conditions: 250 g/ha active ingredient, observed on 19th to 24th day
Description: as §5

[3] = tested on: velvetleaf (Abutilon theophrasti MEDIC.); experiment: Test Example 1: foliar treatment, growth inhibition rate, velvetleaf; format: in vivo; conditions: 31 g/ha active ingredient, visually observed 17th to 23rd day after application
Procedure, shortened: as §1

corn = experiment: Test Example 2: soil application on the day after sowing, growth inhibition rate, corn; format: in vivo, Zea mays L.; conditions: 250 g/ha active ingredient, observed on 19th to 24th day
Procedure, shortened: as §4

rice (Oryza sativa L.) = experiment: Test Example 1: foliar treatment, growth inhibition rate, rice; format: in vivo; conditions: 31 g/ha active ingredient, visually observed 17th to 23rd day after application
Procedure, shortened: as §3

[4] = tested on: soybean (Glycine max Merr.); experiment: Test Example 1: foliar treatment, growth inhibition rate, soybean; format: in vivo; conditions: 31 g/ha active ingredient, visually observed 17th to 23rd day after application
Procedure, shortened: as §2

soybean = experiment: Test Example 2: soil application on the day after sowing, growth inhibition rate, soybean; format: in vivo, Glycine max Merr.; conditions: 250 g/ha active ingredient, observed on 19th to 24th day
Description: as §5

redroot pigweed = experiment: Test Example 2: soil application on the day after sowing, growth inhibition rate, redroot pigweed; format: in vivo, Amaranthus retroflexus L.; conditions: 250 g/ha active ingredient, observed on 19th to 24th day
Procedure, shortened: as §4

velvetleaf = experiment: Test Example 2: soil application on the day after sowing, growth inhibition rate, velvetleaf; format: in vivo, Abutilon theophrasti MEDIC.; conditions: 250 g/ha active ingredient, observed on 19th to 24th day
Procedure, shortened: as §4

[5] = tested on: crabgrass (Digitaria sanguinalis L.); experiment: Test Example 1: foliar treatment, growth inhibition rate, crabgrass; format: in vivo; conditions: 31 g/ha active ingredient, visually observed 17th to 23rd day after application
Procedure, shortened: as §2

[6] = tested on: greenfoxtail (Setaria viridis L.); experiment: Test Example 1: foliar treatment, growth inhibition rate, greenfoxtail; format: in vivo; conditions: 31 g/ha active ingredient, visually observed 17th to 23rd day after application
Procedure, shortened: as §3

[7] = tested on: prickly sida (Sida spinosa L.); experiment: Test Example 1: foliar treatment, growth inhibition rate, prickly sida; format: in vivo; conditions: 31 g/ha active ingredient, visually observed 17th to 23rd day after application
Procedure, shortened: as §2

Compound | Growth inhibition rate (%) Barnyardgrass [1] [%] | Growth inhibition rate (%) redroot pigweed [2] [%] | Growth inhibition rate (%) Wheat (wheat (Triticum spp.)) [%] | Growth inhibition rate (%) Crabgrass (crabgrass) [%] | Growth inhibition rate (%) Rice (rice) [%] | Growth inhibition rate (%) Greenfoxtail (greenfoxtail) [%] | Growth inhibition rate (%) Corn (corn (Zea mays L.)) [%] | Growth inhibition rate (%) Barnyardgrass (barnyardgrass) [%] | Growth inhibition rate (%) Prickly sida (prickly sida) [%] | Growth inhibition rate (%) Wheat (wheat) [%] | Growth inhibition rate (%) Velvetleaf [3] [%] | Growth inhibition rate (%) Corn (corn) [%] | Growth inhibition rate (%) Rice (rice (Oryza sativa L.)) [%] | Growth inhibition rate (%) Soybean [4] [%] | Growth inhibition rate (%) Soybean (soybean) [%] | Growth inhibition rate (%) redroot pigweed (redroot pigweed) [%] | Growth inhibition rate (%) Velvetleaf (velvetleaf) [%] | Growth inhibition rate (%) Crabgrass [5] [%] | Growth inhibition rate (%) Greenfoxtail [6] [%] | Growth inhibition rate (%) Prickly sida [7] [%] | other results
CCOC(=O)c1c(S(C)(=O)=O)ccc(C(=O)c2cnn(CC)c2OC(=O)SC)c1C [compound 62] | 100 | 100 | 50 | 95 | 70 | 95 | 10 | 80 | 90 | 30 | 95 | 0 | 80 | 90 | 0 | 100 | 90 | 100 | 100 |  | 
COC(=O)c1c(S(C)(=O)=O)ccc(C(=O)c2cnn(C)c2OC(=O)SC)c1Cl [compound 29] | 80 | 70 | 0 | 10 | 10 | 40 | 10 | 50 | 60 | 0 | 65 | 0 | 40 | 60 | 40 |  | 50 | 50 | 50 | 60 | 
CCSC(=O)Oc1c(C(=O)c2ccc(S(C)(=O)=O)c(OC(C)C)c2C)cnn1C [compound 37] | 95 | 100 | 0 | 80 | 10 | 60 | 0 | 60 | 10 | 0 | 95 | 0 | 70 | 70 | 0 | 50 | 30 | 80 | 100 |  | 
CCSC(=O)Oc1c(C(=O)c2ccc(S(C)(=O)=O)c(OCC(OC)OC)c2C)cnn1C [Compound No. 209, 5-(ethylthio)carbonyloxy-1-methylpyrazol-4-yl 3-(2,2-dimethoxyethoxy)-2-methyl-4-(methylsulfonyl)phenyl ketone] |  | 98 |  |  |  |  |  |  |  |  |  |  |  | 100 |  |  |  |  |  | 90 | pest or weed control at 31 g/ha ([1]; Echinochloa crus-galli): 100%; pest or weed control at 31 g/ha (wheat (Triticum spp.); Triticum): 0%; inhibition at 250 g/ha (crabgrass; Digitaria sanguinalis): 95%; inhibition at 250 g/ha (rice; Oryza sativa): 90%; inhibition at 250 g/ha (greenfoxtail; Setaria viridis): 100%; pest or weed control at 31 g/ha (corn (Zea mays L.); Zea mays): 0%; inhibition at 250 g/ha (barnyardgrass; Echinochloa crus-galli): 95%; inhibition at 250 g/ha (prickly sida; Sida spinosa): 30%; inhibition at 250 g/ha (wheat; Triticum aestivum): 20%; pest or weed control at 31 g/ha ([3]; Abutilon theophrasti): 100%; inhibition at 250 g/ha (corn; Zea mays): 0%; pest or weed control at 31 g/ha (rice (Oryza sativa L.); Oryza sativa): 95%; inhibition at 250 g/ha (redroot pigweed; Amaranthus retroflexus): 95%; inhibition at 250 g/ha (velvetleaf; Abutilon theophrasti): 50%; pest or weed control at 31 g/ha ([5]; Digitaria sanguinalis): 95%; pest or weed control at 31 g/ha ([6]; Setaria viridis): 98%
CCSC(=O)Oc1c(C(=O)c2ccc(S(C)(=O)=O)c(COC)c2C)cnn1C [compound 63] | 95 | 95 | 10 | 95 | 80 | 90 | 0 | 95 | 80 | 0 | 95 | 0 | 90 | 95 | 0 | 90 | 70 | 98 | 100 |  | 
CCn1ncc(C(=O)c2ccc(S(C)(=O)=O)c(C(=O)OC)c2C)c1OC(=O)SC [compound 4] | 95 |  | 50 | 100 | 70 | 70 | 5 | 80 | 70 | 0 | 95 | 0 | 100 | 95 | 50 | 100 | 60 | 95 | 100 | 80 | 
CCSC(=O)Oc1c(C(=O)c2ccc(S(C)(=O)=O)c(C(=O)SC)c2Cl)cnn1C [compound 31] | 100 | 70 | 0 | 65 | 60 | 70 | 60 | 60 | 70 | 0 | 60 | 0 | 60 | 50 |  | 60 | 60 | 30 | 80 | 70 | 

From patent US8030498B2, “Benzoylpyrazole compounds and herbicides containing them” (Ishihara Sangyo Kaisha, Ltd., priority 2005, dated 2011)
